Results taken from patent US10881623B2, “Compositions for the management of hyperglycemia and related conditions” (SAMI LABS LIMITED, priority 2017, dated 2021).

Columns and labels:
[1] = test system: Muscle cells (C2C12 myotubes); experiment: Glucose uptake (2-NBDG, flow cytometry) in differentiated C2C12 myotubes; type: cell-based; conditions: compared to thymoquinone; FIG. 2
Protocol: The skeletal muscle cell line C2C12 myoblasts (procured from ATCC) were maintained in DMEM supplemented with 10% Fetal Bovine Serum at 37° C. with 5% CO2. Twenty thousand cells per well were seeded in a 24 well plate. When the cells reached 80-90% confluence, differentiation was induced by replacing the growth medium with DMEM containing 1% horse serum. Experiments were performed in completely differentiated C2C12 myotubes after 4-5 days in differentiation medium. Cells were then treated with 0.5% BSA in low glucose media for 16 hours and washed with cold Krebs-Ringer phosphate buffer without glucose. Cells were then treated with different non cytotoxic concentrations of samples in low glucose DMEM media with or without insulin at a concentration of 0.1 μM for 30 minutes at 37° C. Cells were then washed with cold PBS and stained with 5 μM of a fluorescent D-glucose analog 2-[N-(7-nitrobenz-2-oxa-1,3-diazol-4-yl) amino]-2-deoxy-D-glucose (2-NBDG) for 15 minutes in dark followed by flow cytometric detection of fluorescence produced by the cells.

[2] = Anti-glycation, Ribose-BSA method, pentosidine AGE
Protocol: (§1) AGEs can be fluorescent as well as non fluorescent in nature. Typically the vesperlysine type of AGE have an excitation at 370-nm and emission at 440 nm, while pentosidine like AGE have an excitation at 335 nm and emission at 385 nm. The principle is based on the fact that ribose sugar and bovine serum albumin are mixed in specific ratio and incubated for 24 hours. Vesperlysine like AGE formed by the reaction was e estimated by the increase in fluorescence detected, at Ex/Em at 390/460 nm and pentosidines were detected at Ex/Em at 320/405 nm
(§2) Ribose—BSA method: 10 μl of various concentrations of samples were added to 40 μl of BSA (bovine serum albumin, 25 mg/ml stock) and 50 μl of D-Ribose (150 mg/ml stock) was added per well of black 96-well microplate and incubated for 24 h at 37° C. BSA was taken as the control. The AGEs (advanced glycation end product) formed were detected by the fluorescence at Ex/Em at 390/460 nm for vesperlysine and Ex/Em at 320/405 nm for pentosidine AGE.

TNF-α = TNF-α secretion by LPS-stimulated THP-1 cells (ELISA); type: cell-based, human; conditions: for inhibition at 0.03 µg/mL / inhibition at 0.06 µg/mL / inhibition at 0.13 µg/mL: Homo sapiens, THP-1, LPS 0.1 μg/mL, 24 hour; for inhibition at 0.03 µg/mL: 0.03 μg/mL; for inhibition at 0.06 µg/mL: 0.06 μg/mL; for inhibition at 0.13 µg/mL: 0.13 μg/mL
Protocol: Cells: THP1-human monocytes purchased from American Type Culture Collection (ATCC, Manassas, Va.) and maintained as a monolayer culture in Rosewell park memorial institute Medium (RMPI Life technologies, CA, USA.) supplemented with 10% (v/v) heat-inactivated foetal bovine serum (FBS; GIBCO/Invitrogen, Carlsbad, Calif.), 100 units/mL penicillin and 100 μg/mL streptomycin (Life technologies) at 37° C. in a humidified 5% CO2 incubator.
Reagents and buffers: Lipopolysaccharide (LPS, Sigma chemicals, USA), Phosphate buffered saline, RPMI, FBS
ELISA kit: Human TNF ELISA kit, Krishgen Biosciences, USA
Anti inflammatory activity was examined using human monocyte/macrophage cell line THP-Monocytes respond to lipopolysaccharides (LPS) by secreting proinflammatory cytokines. Tumour necrosis factor (TNF-α) is one of the principle cytokine which triggers a cascade of inflammatory reactions. The concentration of TNF-α was measured using an Enzyme linked Immunosorbent assay (ELISA). Reduction in TNF-α concentration indicates an anti inflammatory activity of the compound.
1×10^5 THP-1 cells were stimulated with 100 ng with lipopolysacharide (LPS, 0.1 μg/mL) to induce TNF-α secretion. Cells were pre treated with different concentrations of test materials (Thymoquinone, thymohydroquinone and a composition comprising thymohydroquinone) before LPS treatment. The cell supernatants were collected 24 hour after treatment and secreted TNF-α as estimated by cytokine ELISA as described by the manufacturer. Unstimulated cells were used as negative control. The limit of detection was <1 pg/mL.

[3] = DPPH radical scavenging assay; conditions: concentration reducing DPPH absorbance by 50%
Protocol: DPPH is a stable free radical in a methanolic solution with an absorbance at 520 nm. If the free radicals are scavenged by an anti oxidant molecule, the resulting solution appears yellow. The hydrogen atoms or electrons donation ability of the extracellular metabolite was measured by the bleaching of purple coloured DPPH methanol solution.
Thymoquinone, Thymohydroquinone and the composition comprising thymohydroquinone were prepared in varying concentrations. For the DPPH radical scavenging assay, 20 μL of test material was mixed with 180 μL of DPPH in methanol in a 96 well plate following the method as described earlier (Clarke et al., 2013). The plate was kept in the dark for 15 min, after which the absorbance of the solution was measured at 540 nm using a microplate reader (TECAN Ltd, Männedorf, Switzerland). Blanks (DMSO, methanol) and standard (Trolox solution in DMSO) were recorded simultaneously. The extracts were screened with variable concentrations to establish the inhibition concentration (IC50, the concentration reducing DPPH absorbance by 50%).
The free radical scavenging activity was calculated as follows,
Where, • B=Absorbance of reference solution (OD of DPPH) • C=Absorbance of reference solution, blank (OD of Methanol only) • S=Absorbance of test solution • […]

[4] = Anti-glycation, Ribose-BSA method, vesperlysine-like AGE
Protocol: as §1, §2

Adipocytes = experiment: Glucose uptake in adipocytes; type: cell-based; conditions: compared to thymoquinone; FIG. 2
α-glucosidase = molecular target: T1, α-glucosidase (Saccharomyces cerevisiae, UniProt P53341); experiment: α-glucosidase inhibition (paranitrophenyl-α-d-glucopyranoside substrate); type: biochemical; conditions: enzyme 0.15 U/ml, substrate 1.25 mM, absorbance 405 nm
T1 construct: purchased Sigma-Aldrich G5003
T1 sequence (P53341 whole entry): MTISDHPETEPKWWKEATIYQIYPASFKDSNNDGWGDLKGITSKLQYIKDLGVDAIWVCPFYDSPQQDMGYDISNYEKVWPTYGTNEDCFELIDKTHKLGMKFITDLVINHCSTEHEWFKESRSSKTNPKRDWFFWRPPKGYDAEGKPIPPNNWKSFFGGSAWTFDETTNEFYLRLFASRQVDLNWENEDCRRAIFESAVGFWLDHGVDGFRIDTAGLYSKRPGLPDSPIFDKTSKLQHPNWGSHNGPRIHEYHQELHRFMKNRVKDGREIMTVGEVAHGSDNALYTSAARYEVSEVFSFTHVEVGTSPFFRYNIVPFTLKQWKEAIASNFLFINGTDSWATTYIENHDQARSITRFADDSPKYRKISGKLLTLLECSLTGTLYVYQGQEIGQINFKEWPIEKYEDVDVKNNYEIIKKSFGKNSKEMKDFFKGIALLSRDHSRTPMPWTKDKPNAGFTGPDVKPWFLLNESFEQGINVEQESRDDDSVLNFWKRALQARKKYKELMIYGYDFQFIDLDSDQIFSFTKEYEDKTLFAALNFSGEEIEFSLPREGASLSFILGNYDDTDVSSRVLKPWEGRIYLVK
Protocol: For glucosidase inhibition, α-glucosidase (Code G5003; Sigma-Aldrich, St. Louis, Mo., USA) was dissolved in 67 mM potassium phosphate buffer, pH 6.8, containing 8 containing 0.2% Bovine Serum Albumin (Sigma-Aldrich) & 0.02% sodium azide (Sigma-Aldrich) which was used as enzyme source. Paranitrophenyl-α-d-glucopyranoside (Sigma-Aldrich) was used as substrate. Thymoquinone, thymohydroquinone and composition containing thymohydroquinone were weighed prepared at concentration of 63, 125, 250 and 500 μg/ml and were made up with equal volumes of distilled water. 50 μl of said composition was incubated for 5 min with 50 μl enzyme source (0.15 U/ml). After incubation, 50 μl of substrate (1.25 mM) was added and further incubated for 20 min at room temperature. Presubstrate and post-substrate addition, absorbance was measured at 405 nm on a microplate reader (BMG FLUOstar OPTIMA Microplate Reader). The increase in absorbance on substrate addition was obtained. Each test was performed three times and the mean absorption was used to calculate percentage α-glucosidase inhibition. Acarbose was used as positive control with various concentrations. The inhibitory activities of varying concentrations of said composition were expressed as 100 minus the absorbance difference (%) of the said composition relative to the absorbance change of the negative control (i.e., water used as the test solution). […]

For Cc1cc(O)c(C(C)C)cc1O [Thymohydroquinone, thymohydroquinone], the “glucose uptake in Muscle cells” value [1] was “enhanced glucose uptake”, the “IC50, Inhibition of pentosidine Ex/Em at 320/405 nM” value [2] was 65.89 µg/mL and the “% Inhibition of pentosidine Ex/Em at 320/405 nm” value (from here on “% Inhibition … at 320/405 nm”) ([2]; 15.63 μg/mL) was 5.39%. For the same compound, the “% Inhibition … at 320/405 nm” value ([2]; 31.25 μg/mL) was 28.73%, the “% Inhibition … at 320/405 nm” value ([2]; 62.5 μg/mL) was 49.55% and the “% Inhibition … at 320/405 nm” value ([2]; 125 μg/mL) was 68.33%. The “% Inhibition … at 320/405 nm” value ([2]; 250 μg/mL) was 89.31%, the inhibition at 0.03 µg/mL (TNF-α) was 2.5% and the inhibition at 0.06 µg/mL (TNF-α) was 4.5%. For the same compound, the inhibition at 0.13 µg/mL (TNF-α) was 11.9%, the cell viability (TNF-α; THP-1 cells in the TNF-α test) was “without affecting the cell viability” and the “IC50 of DPPH scavenging” value [3] was 1.78 µg/mL. For the same compound, the “IC50, inhibition of vesperlysine Ex/Em at 390/460 nM” value [4] was 108.30 µg/mL, the “% inhibition of vesperlysine Ex/Em at 390/460 nm” value (shortened to “% inhibition … at 390/460 nm”) ([4]; 15.63 μg/mL) was 23.03% and the “% inhibition … at 390/460 nm” value ([4]; 31.25 μg/mL) was 34.06%. The “% inhibition … at 390/460 nm” value ([4]; 62.5 μg/mL) was 43.83%, the “% inhibition … at 390/460 nm” value ([4]; 125 μg/mL) was 52.28% and the “% inhibition … at 390/460 nm” value ([4]; 250 μg/mL) was 60.42%. For the same compound, the “glucose uptake in Adipocytes” value (Adipocytes) was “enhanced glucose uptake” and the IC50 (α-glucosidase) was 433 µM.

In the case of CC1=CC(=O)C(C(C)C)=CC1=O [Thymoquinone, thymoquinone, reference compound], the “IC50, Inhibition of pentosidine Ex/Em at 320/405 nM” value [2] is reported as 142.70 µg/mL, the “% Inhibition … at 320/405 nm” value ([2]; 15.63 μg/mL) is reported as 0% and the “% Inhibition … at 320/405 nm” value ([2]; 31.25 μg/mL) is reported as 23.59%. The “% Inhibition … at 320/405 nm” value ([2]; 62.5 μg/mL) was 0.06%, the “% Inhibition … at 320/405 nm” value ([2]; 125 μg/mL) was 44.57% and the “% Inhibition … at 320/405 nm” value ([2]; 250 μg/mL) was 61.80%. The inhibition at 0.03 µg/mL (TNF-α) was 22%, the inhibition at 0.06 µg/mL (TNF-α) was 31% and the inhibition at 0.13 µg/mL (TNF-α) was 35%. The “IC50, inhibition of vesperlysine Ex/Em at 390/460 nM” value [4] was 157.80 µg/mL, the “% inhibition … at 390/460 nm” value ([4]; 15.63 μg/mL) was 0% and the “% inhibition … at 390/460 nm” value ([4]; 31.25 μg/mL) was 38.55%. The “% inhibition … at 390/460 nm” value ([4]; 62.5 μg/mL) was 40.81%, the “% inhibition … at 390/460 nm” value ([4]; 125 μg/mL) was 44.54% and the “% inhibition … at 390/460 nm” value ([4]; 250 μg/mL) was 56.69%. It also gave an IC50 (α-glucosidase) of 2480 µM.
